Biological target: T1, Cathepsin K (Homo sapiens, UniProt P43235)
T1 sequence (P43235 whole entry): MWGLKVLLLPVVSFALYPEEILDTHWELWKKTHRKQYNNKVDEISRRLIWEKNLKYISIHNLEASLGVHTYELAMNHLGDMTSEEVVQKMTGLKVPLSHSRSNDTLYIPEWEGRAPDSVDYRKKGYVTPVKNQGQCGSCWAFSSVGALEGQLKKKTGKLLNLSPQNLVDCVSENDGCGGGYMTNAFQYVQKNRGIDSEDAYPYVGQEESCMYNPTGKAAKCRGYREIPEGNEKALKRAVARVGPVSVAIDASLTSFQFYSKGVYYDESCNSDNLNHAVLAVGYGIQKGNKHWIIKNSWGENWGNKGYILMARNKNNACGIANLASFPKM
Assay: Inhibition of human cathepsin K

SMILES	IC50 [nM]	pIC50
CCCC[C@H](NC(=O)O[C@@H]1CN(C(=O)c2c(C)noc2C)CC1(C)C)C(=O)C(=O)N[C@H](C)c1ccccc1	15.1	
CCCC[C@H](NC(=O)O[C@@H]1CN(C(=O)CCCc2ccccc2)CC1(C)C)C(=O)C(=O)N[C@H](C)c1ccccc1	26.9	
CCCC[C@H](NC(=O)O[C@@H]1CN(C(=O)Oc2ccc3ccccc3c2)CC1(C)C)C(=O)C(=O)N[C@H](C)c1ccccc1	57.5	
CCCC[C@H](NC(=O)O[C@@H]1CN(C(=O)Oc2ccccc2)CC1(C)C)C(=O)C(=O)N[C@H](C)c1ccccc1	28.8	
CCCC[C@H](NC(=O)O[C@@H]1CN(C(=O)c2ccno2)CC1(C)C)C(=O)C(=O)N[C@H](C)c1ccccc1	8.91	
CCCC[C@H](NC(=O)O[C@@H]1CN(C(=O)Oc2ccc(-c3ccccc3)cc2)CC1(C)C)C(=O)C(=O)N[C@H](C)c1ccccc1	5.01	
CCCC[C@H](NC(=O)O[C@H](Cn1cnc(-c2ccc(C(F)(F)F)cc2)c1)C(C)(C)C)C(=O)C(=O)Nc1ccn[nH]1		10.6
CCCC[C@H](NC(=O)O[C@@H]1CN(C(=O)c2ccccc2)CC1(C)C)C(=O)C(=O)N[C@H](C)c1ccccc1	64.6	
CCCC[C@H](NC(=O)O[C@@H]1CN(C(=O)OCCc2ccccc2)CC1(C)C)C(=O)C(=O)N[C@H](C)c1ccccc1	32.4	
CCCC[C@H](NC(=O)O[C@@H]1CN(S(=O)(=O)Cc2ccccc2)CC1(C)C)C(=O)C(=O)N[C@H](C)c1ccccc1	17	
CCCC[C@H](NC(=O)O[C@@H]1CN(C(=O)c2cccnc2)CC1(C)C)C(=O)C(=O)N[C@H](C)c1ccccc1	14.1	
CCCC[C@H](NC(=O)O[C@@H]1CN(Cc2ccccc2)CC1(C)C)C(=O)C(=O)N[C@H](C)c1ccccc1	20.9	

Now from value to compound:

IC50 [nM]	pIC50	SMILES
0.646		CCCC[C@H](NC(=O)O[C@H](Cc1nnc(-c2ccc(F)cc2)o1)C(C)(C)C)C(=O)C(=O)N[C@H]1CCCNC1=O
6.92		CCCC[C@H](NC(=O)O[C@@H]1CN(C(=O)c2ccc(-c3ccccc3)cc2)CC1(C)C)C(=O)C(=O)N[C@H](C)c1ccccc1
1.7		CCCC[C@H](NC(=O)O[C@@H]1CN(C(=O)c2ccc3cc[nH]c3c2)CC1(C)C)C(=O)C(=O)N[C@H](C)c1ccccc1
0.0257		CCCC[C@H](NC(=O)O[C@H](Cn1cc(-c2ccc(C(F)(F)F)cc2)cn1)C(C)(C)C)C(=O)C(=O)Nc1ccn[nH]1
1.58		CCCC[C@H](NC(=O)O[C@@H]1CN(C(=O)c2ccc3ccccc3c2)CC1(C)C)C(=O)C(=O)N[C@H](C)c1ccccc1
3.02		CCCC[C@H](NC(=O)O[C@@H]1CN(C(=O)Cc2ccccc2)CC1(C)C)C(=O)C(=O)N[C@H](C)c1ccccc1
2.09		CCCC[C@H](NC(=O)O[C@@H]1CN(C(=O)OCc2ccc(-c3ccccc3)cc2)CC1(C)C)C(=O)C(=O)N[C@H](C)c1ccccc1
0.832		CCCC[C@H](NC(=O)O[C@@H](Cc1nnc(-c2ccccc2)o1)C(C)C)C(=O)C(=O)N[C@H](C)c1ccccc1
3.8		CCCC[C@H](NC(=O)O[C@@H]1CN(C(=O)NCc2ccccc2)CC1(C)C)C(=O)C(=O)N[C@H](C)c1ccccc1
2.82		CCCC[C@H](NC(=O)O[C@@H]1CN(C(=O)c2cc3ccccc3s2)CC1(C)C)C(=O)C(=O)N[C@H](C)c1ccccc1
0.417		CCCC[C@H](NC(=O)O[C@@H]1CN(C(=O)c2ccc(C(F)(F)F)cc2)CC1(C)C)C(=O)C(=O)Nc1cc[nH]n1
8.32		CCCC[C@H](NC(=O)O[C@@H]1CN(S(=O)(=O)c2ccccc2)CC1(C)C)C(=O)C(=O)N[C@H](C)c1ccccc1
6.61		CCCC[C@H](NC(=O)O[C@@H]1CN(C(=O)NCCc2ccccc2)CC1(C)C)C(=O)C(=O)N[C@H](C)c1ccccc1
4.27		CCCC[C@H](NC(=O)O[C@@H]1CN(C(=O)Nc2ccccc2)CC1(C)C)C(=O)C(=O)N[C@H](C)c1ccccc1
